Like-named read-outs stand apart in the source and are kept apart here.
Legend:
[1] = test system: Mino cells; assay: Antiproliferative effect, MTS cell viability assay, Mino cells; type: cell-based; conditions: Homo sapiens, Mino mantle cell lymphoma cells, read-out: IC50 (anti-proliferation) Mino cells
Protocol: (§1) Antiproliferative effect of the exemplary compounds was assessed in B-cell malignancy models.
(§2) To assess the effect of the exemplary compounds on cell viability in B-cell malignancy models by degradation of BTK protein, Mino and JeKo-1 cells were treated with varying concentrations of Ibrutinib (0, 0.001, 0.01, 0.1, 1, 10 μM). Under these conditions, cell viability was determined by an MTS assay. Cytotoxicity was assayed by the determination of reduced tetrazolium (formazan) created by metabolically active cells as detected at 490 nm absorbance using a microplate reader (BMG Labtech, Cary, NC, USA).
(§3) The exemplary compounds attenuated the viability of Mino and JeKo-1 cells in a concentration-dependent manner at 72 h post treatment. Results are shown in Table 1 for each exemplary compound.

[2] = test system: JeKo-1 cells; assay: Antiproliferative effect, MTS cell viability assay, JeKo-1 cells; type: cell-based; conditions: Homo sapiens; JeKo-1 mantle cell lymphoma cells; read-out: IC50 (anti-proliferation) JeKO-1 cells
Protocol: as §1, §2, §3

[3] = biological target: BTK (Homo sapiens, UniProt Q06187); assay: Degradation of BTK protein in Namalwa cells (Western blot; DC50, Dmax); conditions: for DC50: BTK degradation, cell line not given
BTK, sequence (Q06187 whole entry): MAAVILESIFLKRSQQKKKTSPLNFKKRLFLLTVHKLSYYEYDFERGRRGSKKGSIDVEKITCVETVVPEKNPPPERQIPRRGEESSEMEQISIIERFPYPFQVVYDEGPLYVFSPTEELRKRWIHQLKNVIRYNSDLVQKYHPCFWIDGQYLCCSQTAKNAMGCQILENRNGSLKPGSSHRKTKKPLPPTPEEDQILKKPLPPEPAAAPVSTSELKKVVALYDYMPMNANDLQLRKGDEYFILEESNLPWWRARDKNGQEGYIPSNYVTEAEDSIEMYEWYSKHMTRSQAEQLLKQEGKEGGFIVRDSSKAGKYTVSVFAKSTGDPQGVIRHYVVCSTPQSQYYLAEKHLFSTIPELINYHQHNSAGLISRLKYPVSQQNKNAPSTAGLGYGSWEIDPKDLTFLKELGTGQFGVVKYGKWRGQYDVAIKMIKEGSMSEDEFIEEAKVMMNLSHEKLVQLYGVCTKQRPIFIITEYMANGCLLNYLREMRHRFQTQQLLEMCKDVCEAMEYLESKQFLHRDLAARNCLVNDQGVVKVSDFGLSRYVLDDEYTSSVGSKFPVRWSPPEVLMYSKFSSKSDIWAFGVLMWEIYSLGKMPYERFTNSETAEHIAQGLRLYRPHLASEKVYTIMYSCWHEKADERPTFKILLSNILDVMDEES

Compound | Dmax [3] | DC50 [3] | IC50 ([1]; MINO) | IC50 [2] | IC50 [1] | degradation of BTK protein ([3]; Namalwa B lymphocyte cells, various concentrations, 24 hours, Western blot)
Nc1ncnc2c1c(-c1ccc(Oc3ccccc3)cc1)nn2C1CCN(CC2CCN(CCCN3CCN(c4ccc5c(c4)CN(C4CCC(=O)NC4=O)C5=O)CC3)CC2)CC1 (stereo not drawn) [Compound 208, 3-(5-(4-(3-(4-((4-(4-amino-3-(4-phenoxyphenyl)-1H-pyrazolo[3,4-d]pyrimidin-1-yl)piperidin-1-yl)methyl)piperidin-1-yl)propyl)piperazin-1-yl)-1-oxoisoindolin-2-yl)piperidine-2,6-dione] | > 75% | > 50 nM | > 10000 nM | > 10000 nM | – | –
Nc1ncnc2c1c(-c1ccc(Oc3ccccc3)cc1)nn2C1CCN(C2CCN(CC3CCN(c4ccc5c(c4)CN(C4CCC(=O)NC4=O)C5=O)CC3)CC2)CC1 (stereo not drawn) [Compound 214] | < 50% | > 50 nM | – | 1000 to 10000 nM | 1000 to 10000 nM | dose-dependent degradation
Nc1ncnc2c1c(-c1ccc(Oc3ccccc3)cc1)nn2C1CCN(C2CCN(CCN3CCC(c4ccc5c(c4)C(=O)N(C4CCC(=O)NC4=O)C5=O)CC3)CC2)CC1 (stereo not drawn) [Compound 219, 5-(1-(2-(4-(4-amino-3-(4-phenoxyphenyl)-1H-pyrazolo[3,4-d]pyrimidin-1-yl)-[1,4′-bipiperidin]-1′-yl)ethyl)piperidin-4-yl)-2-(2,6-dioxopiperidin-3-yl)isoindoline-1,3-dione] | > 50% | 10 to 50 nM | 1000 to 10000 nM | 1000 to 10000 nM | – | –
Nc1ncnc2c1c(-c1ccc(Oc3ccccc3)cc1)nn2C1CCN(C2CCN(CCN3CCC(c4ccc5c(c4)CN(C4CCC(=O)NC4=O)C5=O)CC3)CC2)CC1 (stereo not drawn) [Compound 220, 3-(5-(1-(2-(4-(4-amino-3-(4-phenoxyphenyl)-1H-pyrazolo[3,4-d]pyrimidin-1-yl)-[1,4′-bipiperidin]-1′-yl)ethyl)piperidin-4-yl)-1-oxoisoindolin-2-yl)piperidine-2,6-dione] | > 75% | 10 to 50 nM | 1000 to 10000 nM | 1000 to 10000 nM | – | –
Nc1ncnc2c1c(-c1ccc(Oc3ccccc3)cc1)nn2C1CCN(C2CCN(CCCN3CCN(c4ccc5c(c4)C(=O)N(C4CCC(=O)NC4=O)C5=O)CC3)CC2)CC1 (stereo not drawn) [Compound 221, 5-(4-(3-(4-(4-amino-3-(4-phenoxyphenyl)-1H-pyrazolo[3,4-d]pyrimidin-1-yl)-[1,4′-bipiperidin]-1′-yl)propyl)piperazin-1-yl)-2-(2,6-dioxopiperidin-3-yl)isoindoline-1,3-dione] | > 75% | 10 to 50 nM | > 10000 nM | 1000 to 10000 nM | – | –
Nc1ncnc2c1c(-c1ccc(Oc3ccccc3)cc1)nn2C1CCN(C2CCN(CCCN3CCN(c4ccc5c(c4)CN(C4CCC(=O)NC4=O)C5=O)CC3)CC2)CC1 (stereo not drawn) [Compound 222, 3-(5-(4-(3-(4-(4-amino-3-(4-phenoxyphenyl)-1H-pyrazolo[3,4-d]pyrimidin-1-yl)-[1,4′-bipiperidin]-1′-yl)propyl)piperazin-1-yl)-1-oxoisoindolin-2-yl)piperidine-2,6-dione] | > 90% | 10 to 50 nM | 1000 to 10000 nM | 1000 to 10000 nM | – | –
Nc1ncnc2c1c(-c1ccc(Oc3ccccc3)cc1)nn2C1CCN(C2CCN(CCCN3CCC(c4ccc5c(c4)C(=O)N(C4CCC(=O)NC4=O)C5=O)CC3)CC2)CC1 (stereo not drawn) [Compound 223, 5-(1-(3-(4-(4-amino-3-(4-phenoxyphenyl)-1H-pyrazolo[3,4-d]pyrimidin-1-yl)-[1,4′-bipiperidin]-1′-yl)propyl)piperidin-4-yl)-2-(2,6-dioxopiperidin-3-yl)isoindoline-1,3-dione] | > 75% | 10 to 50 nM | 1000 to 10000 nM | 1000 to 10000 nM | – | –
Nc1ncnc2c1c(-c1ccc(Oc3ccccc3)cc1)nn2C1CCN(C2CCN(CCCN3CCC(c4ccc5c(c4)CN(C4CCC(=O)NC4=O)C5=O)CC3)CC2)CC1 (stereo not drawn) [Compound 224, 3-(5-(1-(3-(4-(4-amino-3-(4-phenoxyphenyl)-1H-pyrazolo[3,4-d]pyrimidin-1-yl)-[1,4′-bipiperidin]-1′-yl)propyl)piperidin-4-yl)-1-oxoisoindolin-2-yl)piperidine-2,6-dione] | > 75% | 10 to 50 nM | 1000 to 10000 nM | 1000 to 10000 nM | – | –

Continued, in another order:

Dmax [3] | DC50 [3] | Compound | IC50 ([1]; MINO) | IC50 [2] | IC50 [1] | degradation of BTK protein ([3]; Namalwa B lymphocyte cells, various concentrations, 24 hours, Western blot)
> 75% | 10 to 50 nM | Nc1ncnc2c1c(-c1ccc(Oc3ccccc3)cc1)nn2C1CCN(CC2CCN(CCCN3CCC(c4ccc5c(c4)C(=O)N(C4CCC(=O)NC4=O)C5=O)CC3)CC2)CC1 (stereo not drawn) [Compound 209, 5-(1-(3-(4-((4-(4-amino-3-(4-phenoxyphenyl)-1H-pyrazolo[3,4-d]pyrimidin-1-yl)piperidin-1-yl)methyl)piperidin-1-yl)propyl)piperidin-4-yl)-2-(2,6-dioxopiperidin-3-yl)isoindoline-1,3-dione] | > 10000 nM | > 10000 nM | – | –
> 75% | 10 to 50 nM | Nc1ncnc2c1c(-c1ccc(Oc3ccccc3)cc1)nn2C1CCN(CC2CCN(CCCN3CCC(c4ccc5c(c4)CN(C4CCC(=O)NC4=O)C5=O)CC3)CC2)CC1 (stereo not drawn) [Compound 210, 3-(5-(1-(3-(4-((4-(4-amino-3-(4-phenoxyphenyl)-1H-pyrazolo[3,4-d]pyrimidin-1-yl)piperidin-1-yl)methyl)piperidin-1-yl)propyl)piperidin-4-yl)-1-oxoisoindolin-2-yl)piperidine-2,6-dione] | 1000 to 10000 nM | 1000 to 10000 nM | – | –
> 75% | 10 to 50 nM | Nc1ncnc2c1c(-c1ccc(Oc3ccccc3)cc1)nn2C1CCN(CC2CCN(CCCC3CCN(c4ccc5c(c4)C(=O)N(C4CCC(=O)NC4=O)C5=O)CC3)CC2)CC1 (stereo not drawn) [Compound 211, 5-(4-(3-(4-((4-(4-amino-3-(4-phenoxyphenyl)-1H-pyrazolo[3,4-d]pyrimidin-1-yl)piperidin-1-yl)methyl)piperidin-1-yl)propyl)piperidin-1-yl)-2-(2,6-dioxopiperidin-3-yl)isoindoline-1,3-dione] | 1000 to 10000 nM | > 10000 nM | – | –
> 90% | 10 to 50 nM | Nc1ncnc2c1c(-c1ccc(Oc3ccccc3)cc1)nn2C1CCN(CC2CCN(CCCC3CCN(c4ccc5c(c4)CN(C4CCC(=O)NC4=O)C5=O)CC3)CC2)CC1 (stereo not drawn) [Compound 212, 3-(5-(4-(3-(4-((4-(4-amino-3-(4-phenoxyphenyl)-1H-pyrazolo[3,4-d]pyrimidin-1-yl)piperidin-1-yl)methyl)piperidin-1-yl)propyl)piperidin-1-yl)-1-oxoisoindolin-2-yl)piperidine-2,6-dione] | 1000 to 10000 nM | > 10000 nM | – | –
> 90% | < 10 nM | Nc1ncnc2c1c(-c1ccc(Oc3ccccc3)cc1)nn2C1CCN(C2CCN(CC3CCN(c4ccc5c(c4)C(=O)N([C@@H]4CCC(=O)NC4=O)C5=O)CC3)CC2)CC1 [Compound 213a, (R)-5-(4-((4-(4-amino-3-(4-phenoxyphenyl)-1H-pyrazolo[3,4-d]pyrimidin-1-yl)[1,4′-bipiperidin]-1′-yl)methyl)piperidin-1-yl)-2-(2,6-dioxopiperidin-3-yl)isoindoline-1,3-dione] | < 1000 nM | < 1000 nM | – | –
> 75% | 10 to 50 nM | Nc1ncnc2c1c(-c1ccc(Oc3ccccc3)cc1)nn2C1CCN(C2CCN(CCC3CCN(c4ccc5c(c4)C(=O)N(C4CCC(=O)NC4=O)C5=O)CC3)CC2)CC1 (stereo not drawn) [Compound 215, 5-(4-(2-(4-(4-amino-3-(4-phenoxyphenyl)-1H-pyrazolo[3,4-d]pyrimidin-1-yl)-[1,4′-bipiperidin]-1′-yl)ethyl)piperidin-1-yl)-2-(2,6-dioxopiperidin-3-yl)isoindoline-1,3-dione] | 1000 to 10000 nM | < 1000 nM | – | –
> 75% | 10 to 50 nM | Nc1ncnc2c1c(-c1ccc(Oc3ccccc3)cc1)nn2C1CCN(C2CCN(CCC3CCN(c4ccc5c(c4)CN(C4CCC(=O)NC4=O)C5=O)CC3)CC2)CC1 (stereo not drawn) [Compound 216, 3-(5-(4-(2-(4-(4-amino-3-(4-phenoxyphenyl)-1H-pyrazolo[3,4-d]pyrimidin-1-yl)-[1,4′-bipiperidin]-1′-yl)ethyl)piperidin-1-yl)-1-oxoisoindolin-2-yl)piperidine-2,6-dione] | < 1000 nM | < 1000 nM | – | –
> 75% | 10 to 50 nM | Nc1ncnc2c1c(-c1ccc(Oc3ccccc3)cc1)nn2C1CCN(C2CCN(CCN3CCN(c4ccc5c(c4)C(=O)N(C4CCC(=O)NC4=O)C5=O)CC3)CC2)CC1 (stereo not drawn) [Compound 217, 5-(4-(2-(4-(4-amino-3-(4-phenoxyphenyl)-1H-pyrazolo[3,4-d]pyrimidin-1-yl)-[1,4′-bipiperidin]-1′-yl)ethyl)piperazin-1-yl)-2-(2,6-dioxopiperidin-3-yl)isoindoline-1,3-dione] | 1000 to 10000 nM | < 1000 nM | – | –
> 75% | 10 to 50 nM | Nc1ncnc2c1c(-c1ccc(Oc3ccccc3)cc1)nn2C1CCN(C2CCN(CCN3CCN(c4ccc5c(c4)CN(C4CCC(=O)NC4=O)C5=O)CC3)CC2)CC1 (stereo not drawn) [Compound 218, 3-(5-(4-(2-(4-(4-amino-3-(4-phenoxyphenyl)-1H-pyrazolo[3,4-d]pyrimidin-1-yl)-[1,4′-bipiperidin]-1′-yl)ethyl)piperazin-1-yl)-1-oxoisoindolin-2-yl)piperidine-2,6-dione] | 1000 to 10000 nM | < 1000 nM | – | –

Reference: patent US12139492B2 (Endotarget Inc., priority 2021, dated 2024)
